Results taken from US10233184B2, “7-substituted sulfonimidoylpurinone compounds and derivatives for the treatment and prophylaxis of virus infection” (Hoffmann-La Roche Inc., priority 2016, dated 2019).
Values after ≈ are worked out from the molar mass of the structure shown.

Legend:
human TLR7 = target: T1, human TLR7 (Homo sapiens, UniProt Q9NYK1); assay: HEK293-Blue-hTLR-7 cells assay (SEAP reporter); format: cell-based; conditions: for Ratio (EC50(prodrug)/EC50(active form)): EC50 of prodrug over EC50 of corresponding active form; for EC50: HEK293-Blue-hTLR-7 cells, SEAP reporter, 20 hrs, prodrug, read-out: HEK293-hTLR-7 EC50 (Prodrug)
T1 sequence (Q9NYK1 27-1049): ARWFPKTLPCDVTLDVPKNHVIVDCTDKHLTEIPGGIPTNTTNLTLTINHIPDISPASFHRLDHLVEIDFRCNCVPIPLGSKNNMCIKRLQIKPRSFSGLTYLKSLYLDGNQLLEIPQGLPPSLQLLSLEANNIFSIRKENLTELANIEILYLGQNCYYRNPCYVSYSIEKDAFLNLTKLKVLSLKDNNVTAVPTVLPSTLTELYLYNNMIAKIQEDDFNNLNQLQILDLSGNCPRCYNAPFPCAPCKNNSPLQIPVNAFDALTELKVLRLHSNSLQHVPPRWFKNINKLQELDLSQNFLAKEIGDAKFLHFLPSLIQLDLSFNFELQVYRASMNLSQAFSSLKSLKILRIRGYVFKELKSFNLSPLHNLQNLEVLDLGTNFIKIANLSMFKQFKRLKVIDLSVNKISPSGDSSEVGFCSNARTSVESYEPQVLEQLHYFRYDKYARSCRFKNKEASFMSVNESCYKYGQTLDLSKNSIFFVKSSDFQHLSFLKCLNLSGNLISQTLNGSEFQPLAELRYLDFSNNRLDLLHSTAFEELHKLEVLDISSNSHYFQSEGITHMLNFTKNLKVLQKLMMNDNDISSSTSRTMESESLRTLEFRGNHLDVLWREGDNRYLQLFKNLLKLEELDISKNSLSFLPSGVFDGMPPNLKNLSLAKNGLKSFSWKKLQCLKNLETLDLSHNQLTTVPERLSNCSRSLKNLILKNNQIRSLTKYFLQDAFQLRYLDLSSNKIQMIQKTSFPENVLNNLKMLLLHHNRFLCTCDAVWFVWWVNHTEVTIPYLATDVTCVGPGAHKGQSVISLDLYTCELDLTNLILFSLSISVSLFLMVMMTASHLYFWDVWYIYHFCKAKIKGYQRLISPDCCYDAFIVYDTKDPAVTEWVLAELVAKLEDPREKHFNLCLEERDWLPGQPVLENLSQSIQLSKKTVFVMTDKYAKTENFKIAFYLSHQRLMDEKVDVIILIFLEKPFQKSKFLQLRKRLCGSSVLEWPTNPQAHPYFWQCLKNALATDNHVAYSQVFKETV
Text: HEK293-Blue-hTLR-7 Cells Assay:
A stable HEK293-Blue-hTLR-7 cell line was purchased from InvivoGen (Cat.#: hkb-htlr7, San Diego, Calif., USA). These cells were designed for studying the stimulation of human TLR7 by monitoring the activation of NF-κB. A SEAP (secreted embryonic alkaline phosphatase) reporter gene was placed under the control of the IFN-β minimal promoter fused to five NF-κB and AP-1-binding sites. The SEAP was induced by activating NF-κB and AP-1 via stimulating HEK-Blue hTLR7 cells with TLR7 ligands. Therefore the reporter expression was regulated by the NF-κB promoter upon stimulation of human TLR7 for 20 hrs. The cell culture supernatant SEAP reporter activity was determined using QUANTI-Blue™ kit (Cat.#: rep-qbl, Invivogen, San Diego, Calif., USA) at a wavelength of 640 nm, a detection medium that turns purple or blue in the presence of alkaline phosphatase.
HEK293-Blue-hTLR7 cells were incubated at a density of 250,000˜450,000 cells/mL in a volume of 180 μL in a 96-well plate in Dulbecco's Modified Eagle's medium (DMEM) containing 4.5 g/L glucose, 50 U/mL penicillin, […], […], 2 mM L-glutamine, 10% (V/V) heat-inactivated fetal bovine serum for 24 hrs. Then the HEK293-Blue-hTLR-7 cells were incubated with addition of 20 μL test compound in a serial dilution in the presence of final DMSO at 1% and perform incubation under 37° C. in a CO2 incubator for 20 hrs. Then 20 μL of the supernatant from each well was incubated with 180 μL Quanti-blue substrate solution at 37° C. for 2 hrs and the absorbance was read at 620˜655 nm using a spectrophotometer. The signalling pathway that TLR7 activation leads to downstream NF-κB activation has been widely accepted, and therefore similar reporter assay was also widely used for evaluating TLR7 agonist (Tsuneyasu Kaisho and Takashi Tanaka, Trends in Immunology, Volume 29, Issue 7, July 2008, […]; Hiroaki Hemmi et al, Nature Immunology 3, 196-200 (2002)).
The Compounds and Examples of the present invention were tested in HEK293-hTLR-7 assay for their TLR7 agonism activity as described herein and results are listed in Table 1. […] The calculated ratio of EC50(prodrug)/EC50(active form) were within the range from 32 to about 7600.

LYSA solubility study = format: physicochemical; conditions: phosphate buffer, pH 6.5, aqueous buffer, thermodynamic from solid, 0.05M phosphate buffer pH 6.5, read-out: LYSA of Prodrugs
Protocol: LYSA study is used to determine the aqueous solubility of tested compounds. Samples were prepared in duplicate from 10 mM DMSO stock solution. After evaporation of DMSO with a centrifugal vacuum evaporator, the compounds were dissolved in 0.05M phosphate buffer (pH 6.5), stirred for one hour and shaken for two hours. After one night, the solutions were filtered using a microtiter filter plate. Then the filtrate and its 1/10 dilution were analyzed by HPLC-UV. […] The results were in μg/mL. In case the percentage of sample measured in solution after evaporation divided by the calculated maximum of sample amount was bigger than 80%, the solubility was reported as bigger than this value.

Row | SMILES | Ratio (EC50(prodrug)/EC50(active form)) (human TLR7) | EC50 (human TLR7) | solubility thermodynamic (LYSA solubility study)
1 | CCCS(=N)(=O)c1nc(N)c2c(n1)n(Cc1ccccc1)c(=O)n2C(=O)N(C)CCOC (stereo not shown) [Example 2, 6-Amino-9-benzyl-N-(2-methoxyethyl)-N-methyl-8-oxo-2-(propylsulfonimidoyl)purine-7-carboxamide] | 372.1 | 32 µM | 615 µg/mL (≈ 1330 µM)
2 | CCCS(=N)(=O)c1nc(N)c2c(n1)n(Cc1ccccc1)c(=O)n2C(=O)N1CCC(N2CCCCC2)CC1 (stereo not shown) [Example 4, 6-Amino-9-benzyl-7-[4-(1-piperidyl)piperidine-1-carbonyl]-2-(propylsulfonimidoyl)purin-8-one] | 353.8 | 23 µM | 695 µg/mL (≈ 1290 µM)
3 | CCCS(=N)(=O)c1nc(N)c2c(n1)n(Cc1ccccc1)c(=O)n2C(=O)N(CC)CCOC (stereo not shown) [Example 5, 6-Amino-9-benzyl-N-ethyl-N-(2-methoxyethyl)-8-oxo-2-(propylsulfonimidoyl)purine-7-carboxamide] | 630.8 | 41 µM | > 595 µg/mL
4 | CCCCN(CC)C(=O)n1c(=O)n(Cc2ccccc2)c2nc(S(=N)(=O)CCC)nc(N)c21 (stereo not shown) [Example 6, 6-Amino-9-benzyl-N-butyl-N-ethyl-8-oxo-2-(propylsulfonimidoyl)purine-7-carboxamide] | 1266.2 | 82.3 µM | 140 µg/mL (≈ 296 µM)
5 | CCCS(=N)(=O)c1nc(N)c2c(n1)n(Cc1ccccc1)c(=O)n2C(=O)N(C)C(C)C (stereo not shown) [Example 10, 6-Amino-9-benzyl-N-isopropyl-N-methyl-8-oxo-2-(propylsulfonimidoyl)purine-7-carboxamide] | 1053.8 | 68.5 µM | 120 µg/mL (≈ 269 µM)
6 | CCCS(=N)(=O)c1nc(N)c2c(n1)n(Cc1ccccc1)c(=O)n2C(=O)N(C)CCCOC (stereo not shown) [Example 12, 6-Amino-9-benzyl-N-(3-methoxypropyl)-N-methyl-8-oxo-2-(propylsulfonimidoyl)purine-7-carboxamide] | 675.4 | 43.9 µM | 120 µg/mL (≈ 252 µM)
7 | CCCS(=N)(=O)c1nc(N)c2c(n1)n(Cc1ccccc1)c(=O)n2C(=O)N(C)CC(C)C (stereo not shown) [Example 13, 6-Amino-9-benzyl-N-isobutyl-N-methyl-8-oxo-2-(propylsulfonimidoyl)purine-7-carboxamide] | 1030.8 | 67 µM | 155 µg/mL (≈ 337 µM)
8 | CCCS(=N)(=O)c1nc(N)c2c(n1)n(Cc1ccccc1)c(=O)n2C(=O)N(C)CCC(=O)OCC (stereo not shown) [Example 15, Ethyl 3-[[6-amino-9-benzyl-8-oxo-2-(propylsulfonimidoyl)purine-7-carbonyl]-methyl-amino]propanoate] | 7600 | 494 µM | 405 µg/mL (≈ 804 µM)
9 | CCCS(=N)(=O)c1nc(N)c2c(n1)n(Cc1ccccc1)c(=O)n2C(=O)N(C)CCC(=O)OC(C)(C)C (stereo not shown) [Example 16, tert-Butyl 3-[[6-amino-9-benzyl-8-oxo-2-(propylsulfonimidoyl)purine-7-carbonyl]-methyl-amino]propanoate] | 493.8 | 32.1 µM | 205 µg/mL (≈ 386 µM)
10 | CCCS(=N)(=O)c1nc(N)c2c(n1)n(Cc1ccccc1)c(=O)n2C(=O)N(C)CCN(C)C(C)=O (stereo not shown) [Example 25, N-[2-[Acetyl(methyl)amino]ethyl]-6-amino-9-benzyl-N-methyl-8-oxo-2-(propylsulfonimidoyl)purine-7-carboxamide] | 372.3 | 24.2 µM | > 670 µg/mL
11 | CCCS(=N)(=O)c1nc(N)c2c(n1)n(Cc1ccccc1)c(=O)n2C(=O)N(C)CCN(C)C(=O)OC(C)(C)C (stereo not shown) [Example 27, tert-Butyl N-[2-[[6-amino-9-benzyl-8-oxo-2-(propylsulfonimidoyl)purine-7-carbonyl]-methyl-amino]ethyl]-N-methyl-carbamate] |  | 31.7 µM | > 380 µg/mL

Now those with a lower EC50 (human TLR7), led by results:

Row | Ratio (EC50(prodrug)/EC50(active form)) (human TLR7) | EC50 (human TLR7) | solubility thermodynamic (LYSA solubility study) | SMILES
12 |  | 15.1 µM | 240 µg/mL (≈ 522 µM) | CCCN(CC)C(=O)n1c(=O)n(Cc2ccccc2)c2nc(S(=N)(=O)CCC)nc(N)c21 (stereo not shown) [Example 3, 6-Amino-9-benzyl-N-ethyl-8-oxo-N-propyl-2-(propylsulfonimidoyl)purine-7-carboxamide]
13 | 306.2 | 19.9 µM | 615 µg/mL (≈ 1260 µM) | CCCN(CCOC)C(=O)n1c(=O)n(Cc2ccccc2)c2nc(S(=N)(=O)CCC)nc(N)c21 (stereo not shown) [Example 7, 6-Amino-9-benzyl-N-(2-methoxyethyl)-8-oxo-N-propyl-2-(propylsulfonimidoyl)purine-7-carboxamide]
14 | 32.3 | 2.1 µM | 620 µg/mL (≈ 1230 µM) | CCCS(=N)(=O)c1nc(N)c2c(n1)n(Cc1ccccc1)c(=O)n2C(=O)N(CCOC)CCOC (stereo not shown) [Example 8, 6-Amino-9-benzyl-N,N-bis(2-methoxyethyl)-8-oxo-2-(propylsulfonimidoyl)purine-7-carboxamide]
15 | 295.4 | 19.2 µM | > 520 µg/mL | CCCS(=N)(=O)c1nc(N)c2c(n1)n(Cc1ccccc1)c(=O)n2C(=O)N1CCC1 (stereo not shown) [Example 9, 6-Amino-7-(azetidine-1-carbonyl)-9-benzyl-2-(propylsulfonimidoyl)purin-8-one]
16 | 86.2 | 5.6 µM | > 618 µg/mL | CCCS(=N)(=O)c1nc(N)c2c(n1)n(Cc1ccccc1)c(=O)n2C(=O)N1CCN(C)CC1 (stereo not shown) [Example 11, 6-Amino-9-benzyl-7-(4-methylpiperazine-1-carbonyl)-2-(propylsulfonimidoyl)purin-8-one]
17 | 36.9 | 2.4 µM | 225 µg/mL (≈ 460 µM) | CCCS(=N)(=O)c1nc(N)c2c(n1)n(Cc1ccccc1)c(=O)n2C(=O)N(C)CC(=O)OCC (stereo not shown) [Example 14, Ethyl 2-[[6-amino-9-benzyl-8-oxo-2-(propylsulfonimidoyl)purine-7-carbonyl]-methyl-amino]acetate]
18 | 206.2 | 13.4 µM | > 690 µg/mL | CCCS(=N)(=O)c1nc(N)c2c(n1)n(Cc1ccccc1)c(=O)n2C(=O)N(C)CCN(C)C(=O)OC (stereo not shown) [Example 26, Methyl N-[2-[[6-amino-9-benzyl-8-oxo-2-(propylsulfonimidoyl)purine-7-carbonyl]-methyl-amino]ethyl]-N-methyl-carbamate]
